The test system of experiment [1] is IL-8. The experiment is described as follows: Glucocorticoid transrepression assay, IL-8 inhibition (TR). The class given is cell-based. Particulars: Homo sapiens. The gist of the method:
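Human lung epithelial NCI-H292 cells at 75-90% confluence were pretreated with steroid or antagonist for 1 h at 37 °C. TNFα was then added at 10 ng/ml final and cells were incubated overnight, with 10 μM dexamethasone as the maximum-inhibition control. Secreted IL-6 and IL-8 were measured in the medium by MSD multi-spot immunoassay.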

For experiment [2], the system named is human glucocorticoid response element coupled with a luciferase reporter gene. In words: GRE-transactivation assay (HeLa-GRE luciferase, TA). The class given is cell-based. The protocol:
HeLa cells were stably transfected with a human glucocorticoid response element coupled with a luciferase reporter gene. Cells were plated in 96 well Packard View Plates (black sides/ clear bottom) at 20 K cells/0.2 ml complete medium. Plates were incubated overnight at 37°/5% CO2. Medium was aspirated and replaced with 150 μl medium containing 5% charcoal-treated FBS and cells incubated overnight again. Test compounds were prepared in 5% charcoal-treated FBS medium. Medium was aspirated from plates and replaced with 100 μl of test compounds or controls. Plates were returned to incubator for exactly 24 hours. To measure induced luciferase, 100 μl of Steady-Glo luciferase assay substrate (Promega) was added to each well. Plates were sealed and mixed on a plate shaker for 5 minutes. Plate bottom opaque seals were added and the plates were allowed to stand for 60 minutes. Luminescence was measured on a Top-Count instrument (Perkin-Elmer).

For experiment [3], the system named is IL-6. The experiment is described as follows: Glucocorticoid transrepression assay, IL-6 inhibition (TR). The note with it: Homo sapiens; Table 4; NCl-H292 cells, TNFα 10 ng/ml. The class given is cell-based. The protocol: Human Lung epithelial cell line NCl-H292 cells were dissociated from stock flask using 0.05% trypsin/0.53 mM EDTA. Cells were suspended in complete medium and counted. Cells were plated in 96-well flat-bottom plates at 20K cells /well in 0.2 ml/well. Plates were incubated for 24-48 hours until cells were between 75-90% confluent. Medium was aspirated and replaced with medium containing various concentrations of steroids or antagonists. After 1 hour incubation at 37°, TNFα (10 ng/ml final concentration in 0.2 ml) was added and the cells incubated overnight. Control wells with and without TNF were included on each plate, as well as wells with TNF in addition to a maximum (10 μM) concentration of dexamethasone. The cell culture medium was sampled and IL-6 and IL-8 cytokine production was measured using the MSD Multi-Spot immunoassay.

For experiment [4] the following is noted: symptoms associated with chronic nasal congestion; cited from earlier work.
[5] abbreviates: Table 1, NCl-H292 cells, TNFα 10 ng/ml.
Setting [6] is: Table 1, NCl-H292 cells, TNFα 10 ng/ml, read-out: IL-8 inhibition (TR) Emax % inhibition.
Where [7] appears, read: HeLa cells, 24 hours, luciferase, read-out: EMAX value, GRE-transactivation assay.
[8] abbreviates: Table 2, NCl-H292 cells, TNFα 10 ng/ml.
Where [9] appears, read: Table 2, NCl-H292 cells, TNFα 10 ng/ml, read-out: IL-8 inhibition (TR) Emax % inhibition.

The source of these data is patent publication US20120171126A1, “NOVEL [3,2-c] HETEROARYL STEROIDS AS GLUCOCORTICOID RECEPTOR AGONISTS COMPOSITIONS AND USES THEREOF” (priority 2009, published 2012).

What is called IC50 is the concentration needed to halve the response being measured. Lower therefore signals higher potency.

Where two headings read alike, the source gives them in different places.

In experiment [1] (setting [5]), `CC12Cc3cnn(CCC#N)c3C=C1CCC1C2[C@@H](O)CC2(C)C1CC[C@]2(O)C(=O)CSc1ccccn1` (stereo partly shown) [Compound 60] showed an IC50 of 66 to 400 nM. Also, the Emax in experiment [1] (setting [6]) was less than 60%; in experiment [2] (setting [7]) it was 15%.
For `C[C@@H]1C[C@H]2[C@@H]3CCC4=CC(=O)C=C[C@]4(C)[C@@]3(F)[C@@H](O)C[C@]2(C)[C@@]1(O)C(=O)CO` [dexamethasone, reference compound], in experiment [2] (setting [7]), the Emax was found to be 100%.
`CC12Cc3cnn(C4CCOCC4)c3C=C1CCC1C2[C@@H](O)CC2(C)C1CC[C@]2(O)C(=O)CSc1ccc2ccccc2n1` (stereo partly shown) [Compound 74]: the half-maximal inhibitory concentration (IC50) in experiment [1] (setting [5]) lay within 66 to 400 nM. The Emax was 70 to 80% in experiment [1] (setting [6]) and 56% in experiment [2] (setting [7]).
Regarding `CC12Cc3cnn(-c4ccc(F)cc4)c3C=C1CCC1C2[C@@H](O)CC2(C)C1CC[C@]2(O)C(=O)CSc1nc2ccccc2s1` (stereo partly shown) [Compound 1], in experiment [1] (setting [5]), the IC50 lay in the range of 0.06 to 20 nM. Further, the Emax in experiment [1] (setting [6]) was more than 80%; in experiment [2] (setting [7]), 71%.
In experiment [3], `C[C@]12Cc3cnn(-c4ccc(F)cc4)c3C=C1CCC1C2[C@@H](O)C[C@@]2(C)C1CC[C@]2(OC(=O)c1ccco1)C(=O)SCc1ccc(-c2ccccn2)cc1` (stereo partly shown) [Compound 1] registered an Emax of more than 80% and a 50% inhibitory concentration (IC50) of 0.06 to 20 nM.
In the same order, the values of `C[C@]12Cc3cnn(-c4ccc(F)cc4)c3C=C1CCC1C2[C@@H](O)C[C@@]2(C)C1CC[C@]2(OC(=O)c1ccco1)C(=O)SCc1ccc2ccccc2n1` (stereo partly shown) [Compound 2] are more than 80% and 0.06 to 20 nM.
`CC12Cc3cnn(C4CCOCC4)c3C=C1CCC1C2[C@@H](O)CC2(C)C1CC[C@]2(O)C(=O)CSc1nc2cccnc2s1` (stereo partly shown) [Compound 71] displayed a half-inhibitory concentration (IC50) in experiment [1] (setting [5]) of 66 to 400 nM. For the same compound, the values for the Emax in experiment [1] (setting [6]) and in experiment [2] (setting [7]) were more than 80% and 85%, respectively.
As for `CC12Cc3cnn(-c4ccc(F)cc4)c3C=C1CCC1C2[C@@H](O)CC2(C)C1CC[C@]2(O)C(=O)Cn1cc(-c2ccccc2)cn1` (stereo partly shown) [Compound 1], the Emax in experiment [2] (setting [7]) was 69%.
Regarding `CCC(=O)O[C@]1(C(=O)SCF)[C@H](C)C[C@H]2[C@@H]3C[C@H](F)C4=CC(=O)C=C[C@]4(C)[C@@]3(F)[C@@H](O)C[C@@]21C` [fluticasone propionate, reference compound], the Emax in experiment [2] (setting [7]) was found to be 99%.
Consider `Oc1cccc(Nc2ncc(F)c(Nc3cccc(O)c3)n2)c1` [Compound R112], for which, in experiment [4], the “absolute difference over placebo” value is 9%, the “improvement from baseline measurements (prior to drug initiation)” value is on record as “up to 38%” and the “relative improvement over placebo” value is recorded as “greater than 20%”.
On to `C[C@]12Cc3cnn(-c4ccc(F)cc4)c3C=C1CCC1C2[C@@H](O)C[C@@]2(C)C1CC[C@]2(OC(=O)c1ccco1)C(=O)SCc1nc2ccccc2o1` (stereo partly shown) [Compound 3], for which, in experiment [3], the Emax was more than 80% and the IC50 was 0.06 to 20 nM.
On to `C[C@]12Cc3cnoc3C=C1CCC1C2[C@@H](O)C[C@@]2(C)C1CC[C@]2(O)C(=O)Nc1nc2cccnc2s1` (stereo partly shown) [Compound 4-1], for which the Emax was 23% in experiment [1] (text value for compound 4-1, only a % value printed, read-out: IL-8 inhibition(TR) IC50/Emax(nM, % inhibition)) and 0% in experiment [2] (text value for compound 4-1, only a % value printed, read-out: H Hela-GRE luciferase(TA) IC50/Emax(nM, % inhibition)).
Consider `Cc1ccnc(SCC(=O)[C@@]2(O)CCC3C4CCC5=Cc6c(cnn6C6CCCCC6)CC5(C)C4[C@@H](O)CC32C)n1` (stereo partly shown) [Compound 131], for which the IC50 in experiment [1] (setting [5]) was in the range of 0.06 to 20 nM. Moreover, the Emax in experiment [1] (setting [6]) was more than 80%; in experiment [2] (setting [7]), 83%.
As for `CC12Cc3cnn(C4CCOCC4)c3C=C1CCC1C2[C@@H](O)CC2(C)C1CC[C@]2(O)C(=O)CSc1nc2ncccc2o1` (stereo partly shown) [Compound 72], in experiment [1] (setting [5]), the IC50 is 21 to 65 nM. Besides, the Emax in experiment [1] (setting [6]) was more than 80%.
`C[C@]12Cc3cnn(-c4ccc(F)cc4)c3C=C1CCC1C2[C@@H](O)C[C@@]2(C)C1CC[C@]2(O)C(=O)NCCc1nc2ccccc2o1` (stereo partly shown) [Compound 12]: the 50% inhibitory concentration (IC50) in experiment [1] (setting [8]) was 0.06 to 20 nM. Moreover, the Emax in experiment [1] (setting [9]) was more than 80%.
In the case of `CC12Cc3cnn(-c4ccccc4)c3C=C1CCC1C2[C@@H](O)CC2(C)C1CC[C@]2(O)C(=O)CSc1ccccn1` (stereo partly shown) [Compound 16], the IC50 in experiment [1] (setting [5]) is 0.06 to 20 nM. In addition, the Emax in experiment [1] (setting [6]) was more than 80%.
Regarding `C[C@H](NC(=O)[C@@]1(OC(=O)c2ccco2)CCC2C3CCC4=Cc5c(cnn5-c5ccc(F)cc5)CC4(C)C3[C@@H](O)CC21C)c1cccc2ccccc12` (stereo partly shown) [Compound 15], the IC50 in experiment [1] (setting [8]) was in the range of 0.06 to 20 nM. Moreover, the Emax in experiment [1] (setting [9]) was more than 80%.
Turning to `Cn1c(NC(=O)[C@@]2(O)CCC3C4CCC5=Cc6c(cnn6-c6ccc(F)cc6)CC5(C)C4[C@@H](O)CC32C)nc2ccccc21` (stereo partly shown) [Compound 21], the IC50 in experiment [1] (setting [8]) fell in the range of 0.06 to 20 nM. The Emax in experiment [1] (setting [9]) was more than 80%.
Regarding `CC12Cc3cnn(C(C)(C)C)c3C=C1CCC1C2[C@@H](O)CC2(C)C1CC[C@]2(O)C(=O)CSc1ccccn1` (stereo partly shown) [Compound 66], the Emax in experiment [1] (setting [6]) is less than 60%.
Take `CC12Cc3cnn(-c4ccc(F)cc4)c3C=C1CCC1C2[C@@H](O)CC2(C)C1CC[C@]2(O)C(=O)Cn1cc(Cc2ccccc2)nn1` (stereo partly shown) [Compound 2]: the IC50 in experiment [1] (Table 6, NCl-H292 cells, TNFα 10 ng/ml) lay within 0.06 to 20 nM. Besides, the Emax in experiment [1] (Table 6, NCl-H292 cells, TNFα 10 ng/ml, read-out: IL-8 inhibition (TR) Emax % inhibition) was more than 80%.
With `C[C@]12Cc3cnn(-c4ccc(F)cc4)c3C=C1CCC1C2[C@@H](O)C[C@@]2(C)C1CC[C@]2(OC(=O)c1ccco1)C(=O)SCc1cccc(N2CCCC2)n1` (stereo partly shown) [Compound 4], in experiment [3], the Emax is more than 80% and the IC50 was in the range of 0.06 to 20 nM.
In experiment [1] (setting [5]), `CC12Cc3cnn(-c4ccc(F)cc4)c3C=C1CCC1C2[C@@H](O)CC2(C)C1CC[C@]2(O)C(=O)CSc1nc(-c2ccccc2)c(-c2ccccc2)o1` (stereo partly shown) [Compound 96] registered an IC50 of 66 to 400 nM. Besides, in experiment [1] (setting [6]), the Emax was more than 80%.
Take `C[C@H](NC(=O)[C@@]1(OC(=O)c2ccco2)CCC2C3CCC4=Cc5c(cnn5-c5ccc(F)cc5)CC4(C)C3[C@@H](O)CC21C)c1ccccc1` (stereo partly shown) [Compound 16]: the concentration for half-maximal inhibition (IC50) in experiment [1] (setting [8]) is 0.06 to 20 nM. Also, the Emax in experiment [1] (setting [9]) is more than 80%.
As to `C[C@H](NC(=O)[C@@]1(O)CCC2C3CCC4=Cc5c(cnn5-c5ccc(F)cc5)C[C@]4(C)C3[C@@H](O)C[C@@]21C)c1ccccc1` (stereo partly shown) [Compound 13], the IC50 in experiment [1] (setting [8]) lay within 0.06 to 20 nM. Moreover, the Emax in experiment [1] (setting [9]) was more than 80%.
Regarding `CC12Cc3cnn(-c4ccccc4)c3C=C1CCC1C2[C@@H](O)CC2(C)C1CC[C@]2(O)C(=O)COc1ccccn1` (stereo partly shown) [Compound 122], the 50% inhibitory concentration (IC50) in experiment [1] (setting [5]) lay within 0.06 to 20 nM. For the same compound, the Emax in experiment [1] (setting [6]) is more than 80%.
